One may read the pIC50 as −log10 of the IC50, conventionally taken in molar units.

pIC50, pKi: −log10 of the molar value. Structures can show the parent of a compound that is named as a salt.

Sequence of human GlyT1c transporter (P48067 whole entry): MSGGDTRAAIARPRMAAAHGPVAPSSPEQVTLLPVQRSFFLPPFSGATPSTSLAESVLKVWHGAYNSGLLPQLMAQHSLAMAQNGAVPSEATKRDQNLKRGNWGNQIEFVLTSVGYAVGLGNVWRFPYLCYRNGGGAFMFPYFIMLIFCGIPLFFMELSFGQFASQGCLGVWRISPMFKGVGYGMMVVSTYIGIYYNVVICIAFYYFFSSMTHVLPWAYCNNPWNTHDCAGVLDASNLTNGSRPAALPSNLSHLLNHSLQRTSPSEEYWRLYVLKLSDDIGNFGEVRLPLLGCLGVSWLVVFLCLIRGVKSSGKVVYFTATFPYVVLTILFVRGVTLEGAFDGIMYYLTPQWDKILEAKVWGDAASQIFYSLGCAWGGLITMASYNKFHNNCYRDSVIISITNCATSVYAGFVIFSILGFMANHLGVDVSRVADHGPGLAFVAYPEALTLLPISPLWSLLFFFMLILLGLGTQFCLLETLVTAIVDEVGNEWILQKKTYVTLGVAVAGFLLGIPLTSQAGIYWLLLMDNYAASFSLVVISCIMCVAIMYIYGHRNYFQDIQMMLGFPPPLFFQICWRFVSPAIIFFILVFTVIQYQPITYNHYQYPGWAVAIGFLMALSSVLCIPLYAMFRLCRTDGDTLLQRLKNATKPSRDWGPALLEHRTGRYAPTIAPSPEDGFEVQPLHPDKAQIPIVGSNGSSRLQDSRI

One experiment deals with human GlyT1c (Homo sapiens (Human), UniProt P48067). Put plainly: [3H]-Glycine uptake into recombinant CHO cells expressing human GlyT1. Format: cell-based. The settings on record: hGlyT1c_5_CHO cells, 200 nM [3H]-glycine. How it is done: [^3H]-Glycine uptake into recombinant CHO cells expressing human GlyT1: Human GlyT1c expressing recombinant hGlyT1c—5_CHO cells were plated at 20,000 cells per well in 96 well Cytostar-T scintillation microplates (Amersham Biosciences) and cultured to sub-confluency for 24 h. […] The plates were placed in a Wallac Microbeta (PerkinElmer) and continuously counted by solid phase scintillation spectrometry during up to 3 hours. […] IC50 calculations were made by four-parametric logistic nonlinear regression analysis (GraphPad Prism) using determinations within the range of linear increase of [^3H]-glycine incorporation between 60 and 120 min.
Sequence of human GlyT1c (P48067 whole entry): as above
With `NCCS(=O)(=O)NCCOc1ccc2c(c1)C(C1(c3ccc(Cl)cc3)CCC1)NCC2` (single isomer, unassigned) [Example 152, 2-Amino-N-[2-({1-[1-(4-Chlorophenyl)cyclobutyl]-1,2,3,4-tetrahydroisoquinolin-7-yl}oxy)ethyl]ethanesulfonamide dihydrochloride], the pIC50 was at least 5.00.

Take `O=C(NCCOc1ccc2c(c1)C(C1(c3ccc(Cl)cc3)CCC1)NCC2)c1ccc(Cl)cc1Cl` (stereo not shown) [Example 1, 2,4-Dichloro-N-(2-{1-[1-(4-chloro-phenyl)-cyclobutyl]-1,2,3,4-tetrahydro-isoquinolin-7-yloxy}-ethyl)-benzamide]: the pIC50 was at least 5.00.

Consider `CS(=O)(=O)NCCOc1ccc2c(c1)C(C1(c3ccc(Cl)cc3)CCC1)NCC2` (stereo not shown) [Example 2, N-(2-{1-[1-(4-Chloro-phenyl)-cyclobutyl]-1,2,3,4-tetrahydro-isoquinolin-7-yloxy}-ethyl)-methanesulfonamide], for which the pIC50 is at least 7.00.

Consider `CCCS(=O)(=O)NCCOc1ccc2c(c1)C(C1(c3ccc(Cl)cc3)CCC1)NCC2` (stereo not shown) [Example 4, Propane-1-sulfonic acid (2-{1-[1-(4-chloro-phenyl)-cyclobutyl]-1,2,3,4-tetrahydro-isoquinolin-7-yloxy}-ethyl)-amide hydrochloride], for which the pIC50 was at least 7.00.

Regarding `CCCS(=O)(=O)NCCOc1ccc2c(c1)CCNC2C1(c2ccc(Cl)cc2)CCC1` (stereo not shown) [Example 68, N-[2-({1-[1-(4-Chlorophenyl)cyclobutyl]-1,2,3,4-tetrahydroisoquinolin-6-yl}oxy)ethyl]propane-1-sulfonamide hydrochloride], the pIC50 was at least 5.00.

Turning to `CCN(CC)S(=O)(=O)NCCOc1ccc2c(c1)C(C1(c3ccc(Cl)cc3)CCC1)NCC2(C)C` (stereo not shown) [Example 69, N′-[2-({1-[1-(4-Chlorophenyl)cyclobutyl]-4,4-dimethyl-1,2,3,4-tetrahydroisoquinolin-7-yl}oxy)ethyl]-N,N-diethylsulfuric diamide hydrochloride], the pIC50 was at least 6.00.

For `CCCS(=O)(=O)NCCOc1ccc2c(c1)C(C1(c3ccc(F)cc3)CCC1)N(C(=O)C(F)(F)F)CC2` (stereo not shown) [Example 70, N-[2-({1-[1-(4-Fluorophenyl)cyclobutyl]-2-(trifluoroacetyl)-1,1,3,4-tetrahydroisoquinolin-7-yl}oxy)ethyl]propane-1-sulfonamide], the pIC50 is at least 4.00.

For the compound `CCCS(=O)(=O)NCCOc1ccc2c(c1)C(C1(c3ccc(F)cc3)CCC1)N(CC(F)(F)F)CC2` (stereo not shown) [Example 71, N-[2-({1-[1-(4-Fluorophenyl)cyclobutyl]-2-(2,2,2-trifluoroethyl)-1,2,3,4-tetrahydroisoquinolin-7-yl}oxy)ethyl]propane-1-sulfonamide hydrochloride], the pIC50 was at least 6.00.

Turning to `CCCS(=O)(=O)NCCOc1ccc2c(c1)C(C1(c3ccc(F)cc3)CCC1)N(N=O)CC2` (stereo not shown) [Example 74, N-[2-({1-[1-(4-Fluorophenyl)cyclobutyl]-2-nitroso-1,2,3,4-tetrahydroisoquinolin-7-yl}oxy)ethyl]propane-1-sulfonamide], the pIC50 is at least 5.00.

As to `CCCS(=O)(=O)NCCOc1ccc2c(c1)C(C1(c3ccc(F)cc3)CCC1)N(N)CC2` (stereo not shown) [Example 75, N-[2-({2-Amino-1-[1-(4-fluorophenyl)cyclobutyl]-1,2,3,4-tetrahydroisoquinolin-7-yl}oxy)ethyl]propane-1-sulfonamide], the pIC50 was at least 6.00.

Take `CCCS(=O)(=O)NCCOc1ccc2c(c1)C(C1(c3ccc(Cl)cc3OC)CCC1)NCC2` (stereo not shown) [Example 76, N-[2-({1-[1-(4-Chloro-2-methoxyphenyl)cyclobutyl]-1,2,3,4-tetrahydroisoquinolin-7-yl}oxy)ethyl]propane-1-sulfonamide hydrochloride]: the pIC50 is at least 7.00.

With `CCCS(=O)(=O)NCCOc1ccc2c(c1)C(C1(c3cccc(Cl)c3)CCC1)N(CC#N)CC2` (stereo not shown) [Example 77, N-[2-({1-[1-(3-Chlorophenyl)cyclobutyl]-2-(cyanomethyl)-1,2,3,4-tetrahydroisoquinolin-7-yl}oxy)ethyl]propane-1-sulfonamide], the pIC50 is at least 6.00.

For `CCCS(=O)(=O)NCCOc1ccc2c(c1)C(C1(c3cccc(Cl)c3)CCC1)N(CCN)CC2` (stereo not shown) [Example 78, N-[2-({2-(2-Aminoethyl)-1-[1-(3-chlorophenyl)cyclobutyl]-1,2,3,4-tetrahydroisoquinolin-7-yl}oxy)ethyl]propane-1-sulfonamide bis(trifluoroacetate)], the pIC50 was at least 5.00.

For the compound `CCCS(=O)(=O)NCCOc1ccc2c(c1)C(C1(c3ccc(F)cc3)CCC1)N(c1ncc[nH]1)CC2` (stereo not shown) [Example 79, N-[2-({1-[1-(4-Fluorophenyl)cyclobutyl]-2-(1H-imidazol-2-yl)-1,2,3,4-tetrahydroisoquinolin-7-yl}oxy)ethyl]propane-1-sulfonamide], the pIC50 is at least 6.00.

Take `CCCS(=O)(=O)NCCOc1ccc2c(c1)C(C1(c3ccc(Cl)cc3)CCC1)N(CC#N)CC2` (stereo not shown) [Example 80, N-[2-({1-[1-(4-cChlorophenyl)cyclobutyl]-2-(cyanomethyl)-1,2,3,4-tetrahydroisoquinolin-7-yl}oxy)ethyl]propane-1-sulfonamide hydrochloride]: the negative logarithm of the IC50 (pIC50) was at least 7.00.

Regarding `O=S(=O)(CCCOc1ccc2c(c1)C(C1(c3ccc(Cl)cc3)CCC1)NCC2)N1CCOCC1` (stereo not shown) [Example 81, 1-[1-(4-Chlorophenyl)cyclobutyl]-7-[3-(morpholin-4-ylsulfonyl)propoxy]-1,2,3,4-tetrahydroisoquinoline hydrochloride], the pIC50 is at least 5.00.

In the case of `CCCNS(=O)(=O)CCCOc1ccc2c(c1)C(C1(c3ccc(Cl)cc3)CCC1)NCC2` (stereo not shown) [Example 82, 3-({1-[1-(4-Chlorophenyl)cyclobutyl]-1,2,3,4-tetrahydroisoquinolin-7-yl}oxy)-N-propylpropane-1-sulfonamide hydrochloride], the pIC50 was at least 6.00.

`O=S(=O)(NCCOc1ccc2c(c1)C(C1(c3ccc(Cl)cc3)CC1)NCC2)c1cccnc1` (stereo not shown) [Example 85, N-[2-({1-[1-(4-Chlorophenyl)cyclopropyl]-1,2,3,4-tetrahydroisoquinolin-7-yl}oxy)ethyl]pyridine-3-sulfonamide]: the pIC50 is at least 7.00.

Take `Cn1cc(S(=O)(=O)NCCOc2ccc3c(c2)C(C2(c4ccc(Cl)cc4)CC2)NCC3)cn1` (stereo not shown) [Example 86, N-[2-({1-[1-(4-Chlorophenyl)cyclopropyl]-1,2,3,4-tetrahydroisoquinolin-7-yl}oxy)ethyl]-1-methyl-1H-pyrazole-4-sulfonamide]: the pIC50 is at least 7.00.

In the case of `CCCS(=O)(=O)NCCOc1ccc2c(c1)C(C1(c3ccc(Cl)cc3)CC1)NCC2` (stereo not shown) [Example 87, N-[2-({1-[1-(4-Chlorophenyl)cyclopropyl]-1,2,3,4-tetrahydroisoquinolin-7-yl}oxy)ethyl]propane-1-sulfonamide hydrochloride], the pIC50 was at least 7.00.

Take `NCCS(=O)(=O)NCCOc1ccc2c(c1)C(C1(c3ccc(Cl)cc3)CCC1)NCC2` (stereo not shown) [Example 154, 2-Amino-N-[2-({1-[1-(4-chlorophenyl)cyclobutyl]-1,2,3,4-tetrahydroisoquinolin-7-yl}oxy)ethyl]ethanesulfonamide]: the pIC50 was at least 6.00.

Another experiment has as its target human GlyT1c transporter (Homo sapiens (Human), UniProt P48067). Put plainly: Radioligand binding assay using recombinant CHO cell membranes expressing human GlyT1. The settings on record: examples 88-204, radioligand not specified by footnote, read-out: radioligand binding Kiapp. The method, boiled down: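 Competition binding of [^3H]-(R)-NPTS (0.5 nM) to CHO membranes expressing human GlyT1c (50 μg/ml protein) in pH 7.5 Hepes/NaCl buffer with 1% DMSO, 1 h at room temperature. Non-specific binding defined with 10 μM Org24598; filtration and scintillation counting, one-site fit, Ki via Cheng-Prusoff.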
With `NCCS(=O)(=O)NCCOc1ccc2c(c1)C(C1(c3ccc(Cl)cc3)CCC1)NCC2` (single isomer, unassigned) [Example 152, 2-Amino-N-[2-({1-[1-(4-Chlorophenyl)cyclobutyl]-1,2,3,4-tetrahydroisoquinolin-7-yl}oxy)ethyl]ethanesulfonamide dihydrochloride], the pKi was at least 7.00.

The same experiment, now with this note: radioligand [3H]-(R)-NPTS (examples 1-19, 22-52, 54-87), read-out: radioligand binding Kiapp.
With `O=C(NCCOc1ccc2c(c1)C(C1(c3ccc(Cl)cc3)CCC1)NCC2)c1ccc(Cl)cc1Cl` (stereo not shown) [Example 1, 2,4-Dichloro-N-(2-{1-[1-(4-chloro-phenyl)-cyclobutyl]-1,2,3,4-tetrahydro-isoquinolin-7-yloxy}-ethyl)-benzamide], the pKi is at least 5.00.

On to `CS(=O)(=O)NCCOc1ccc2c(c1)C(C1(c3ccc(Cl)cc3)CCC1)NCC2` (stereo not shown) [Example 2, N-(2-{1-[1-(4-Chloro-phenyl)-cyclobutyl]-1,2,3,4-tetrahydro-isoquinolin-7-yloxy}-ethyl)-methanesulfonamide], for which the pKi is at least 7.00.

In the case of `CCCS(=O)(=O)NCCOc1ccc2c(c1)C(C1(c3ccc(Cl)cc3)CCC1)NCC2` (stereo not shown) [Example 4, Propane-1-sulfonic acid (2-{1-[1-(4-chloro-phenyl)-cyclobutyl]-1,2,3,4-tetrahydro-isoquinolin-7-yloxy}-ethyl)-amide hydrochloride], the pKi is at least 7.00.

For the origin of these results see patent US8653100B2 (AbbVie Inc., priority 2008, dated 2014).
